Measured values from patent EP0908457B1, “3-(1,2-benzisothiazol- and isoxazol-5-Y1)-2,4(1H,3H)-pyrimidinedione or thione and 3-(1,2-benzisothiazol- and isoxazol-5-y1)-4(3H)-pyrimidinone or thione herbicidal agents” (BASF AKTIENGESELLSCHAFT, priority 1997, dated 1999).

Key:
[1] = system: Sagittaria pygmaea, L.; assay: Preemergence weed control under flooded paddy conditions, SAGPY (Arrowhead (Pygmaea)); type: in vivo; conditions: preemergence, flooded paddy, rated three to four weeks after treatment
[2] = system: Cyperus serotinus, Rottb.; assay: Preemergence weed control under flooded paddy conditions, CYPSE (Flatsedge); type: in vivo; conditions: preemergence, rated three to four weeks after treatment
[3] = system: Echinochloa oryzoides (Ard.) Fritsch.; assay: Preemergence weed control under flooded paddy conditions, ECHORC (Watergrass (Calif.)); type: in vivo; conditions: preemergence, flooded paddy, rated three to four weeks after treatment
[4] = system: Oryza sativa, (L.) Tebonnet; assay: Rice tolerance to post-transplant applications under flooded paddy conditions (Example 187), ORYSAT (Rice, Tebonnet); conditions: rated three to four weeks after treatment
[5] = system: Cyperus iria; assay: Preemergence weed control under flooded paddy conditions, CYPIR (Rice Flatsedge); type: in vivo; conditions: preemergence, flooded paddy, rated three to four weeks after treatment
[6] = system: Monochoria vaginalis, Presl.; assay: Preemergence weed control under flooded paddy conditions, MOOVA (Monochoria); type: in vivo; conditions: preemergence, flooded paddy, rated three to four weeks after treatment

C=C(C(=O)OC)C(C)OCc1nsc2ccc(-n3c(=O)cc(C(F)(F)F)n(C)c3=O)cc12 (centres unmarked) [Example 212, Methyl 3-{{5-[3,6-dihydro-3-methyl-2,6-dioxo-4-(trifluoromethyl)-1(2H)-pyrimidinyl]-1,2-benzisothiazol-3-yl}methoxy}-2-methylenebutyrate]
9.0: MOOVA herbicidal effect rating ([6]; Rate 0.1250 kg/ha) | MOOVA herbicidal effect rating ([6]; Rate 0.2500 kg/ha)
8.0: MOOVA herbicidal effect rating ([6]; Rate 0.0625 kg/ha)
3.0: ORYSAT herbicidal effect rating ([4]; Rate 0.0313 kg/ha)
0.0: SAGPY herbicidal effect rating ([1]; Rate 0.0313 kg/ha) | SAGPY herbicidal effect rating ([1]; Rate 0.0625 kg/ha) | SAGPY herbicidal effect rating ([1]; Rate 0.1250 kg/ha) | SAGPY herbicidal effect rating ([1]; Rate 0.2500 kg/ha) | CYPSE herbicidal effect rating ([2]; Rate 0.0313 kg/ha) | CYPSE herbicidal effect rating ([2]; Rate 0.0625 kg/ha) | CYPSE herbicidal effect rating ([2]; Rate 0.1250 kg/ha) | CYPSE herbicidal effect rating ([2]; Rate 0.2500 kg/ha) | ECHORC herbicidal effect rating ([3]; Rate 0.0313 kg/ha) | ECHORC herbicidal effect rating ([3]; Rate 0.0625 kg/ha) | CYPIR herbicidal effect rating ([5]; Rate 0.0313 kg/ha) | CYPIR herbicidal effect rating ([5]; Rate 0.0625 kg/ha) | CYPIR herbicidal effect rating ([5]; Rate 0.1250 kg/ha)
2.0: ECHORC herbicidal effect rating ([3]; Rate 0.1250 kg/ha) | CYPIR herbicidal effect rating ([5]; Rate 0.2500 kg/ha)
7.0: ORYSAT herbicidal effect rating ([4]; Rate 0.2500 kg/ha)
4.0: ECHORC herbicidal effect rating ([3]; Rate 0.2500 kg/ha) | ORYSAT herbicidal effect rating ([4]; Rate 0.0625 kg/ha) | MOOVA herbicidal effect rating ([6]; Rate 0.0313 kg/ha)
6.0: ORYSAT herbicidal effect rating ([4]; Rate 0.1250 kg/ha)

Cc1nsc2ccc(-n3c(=O)cc(C(F)(F)F)n(CC#N)c3=O)cc12 [Example 213, 3,4-Dihydro-3-(3-methyl-1,2-benzisothiazol-5-yl)-2,4-dioxo-6-(trifluoromethyl)-1(2H)-pyrimidineacetonitrile]
4.0: ORYSAT herbicidal effect rating ([4]; Rate 0.0625 kg/ha)
6.0: ORYSAT herbicidal effect rating ([4]; Rate 0.1250 kg/ha)
7.0: ORYSAT herbicidal effect rating ([4]; Rate 0.2500 kg/ha)
3.0: ORYSAT herbicidal effect rating ([4]; Rate 0.0313 kg/ha)
0.0: SAGPY herbicidal effect rating ([1]; Rate 0.0313 kg/ha) | SAGPY herbicidal effect rating ([1]; Rate 0.0625 kg/ha) | SAGPY herbicidal effect rating ([1]; Rate 0.1250 kg/ha) | SAGPY herbicidal effect rating ([1]; Rate 0.2500 kg/ha) | CYPSE herbicidal effect rating ([2]; Rate 0.0313 kg/ha) | CYPSE herbicidal effect rating ([2]; Rate 0.0625 kg/ha) | CYPSE herbicidal effect rating ([2]; Rate 0.1250 kg/ha) | CYPSE herbicidal effect rating ([2]; Rate 0.2500 kg/ha) | ECHORC herbicidal effect rating ([3]; Rate 0.0313 kg/ha) | ECHORC herbicidal effect rating ([3]; Rate 0.0625 kg/ha) | ECHORC herbicidal effect rating ([3]; Rate 0.1250 kg/ha) | ECHORC herbicidal effect rating ([3]; Rate 0.2500 kg/ha) | CYPIR herbicidal effect rating ([5]; Rate 0.0313 kg/ha) | CYPIR herbicidal effect rating ([5]; Rate 0.0625 kg/ha) | CYPIR herbicidal effect rating ([5]; Rate 0.1250 kg/ha) | MOOVA herbicidal effect rating ([6]; Rate 0.0313 kg/ha) | MOOVA herbicidal effect rating ([6]; Rate 0.0625 kg/ha) | MOOVA herbicidal effect rating ([6]; Rate 0.1250 kg/ha)
2.0: MOOVA herbicidal effect rating ([6]; Rate 0.2500 kg/ha)

C#CCn1c(C(F)(F)F)cc(=O)n(-c2ccc3snc(C)c3c2)c1=O [Example 217, 3-(3-Methyl-1,2-benzisothiazol-5-yl)-1-(2-propynyl)-6-(trifluoromethyl)-2,4(1H,3H)-pyrimidinedione]
2.0: ORYSAT herbicidal effect rating ([4]; Rate 0.0313 kg/ha) | ORYSAT herbicidal effect rating ([4]; Rate 0.0625 kg/ha) | MOOVA herbicidal effect rating ([6]; Rate 0.0313 kg/ha)
0.0: SAGPY herbicidal effect rating ([1]; Rate 0.0313 kg/ha) | SAGPY herbicidal effect rating ([1]; Rate 0.0625 kg/ha) | SAGPY herbicidal effect rating ([1]; Rate 0.1250 kg/ha) | SAGPY herbicidal effect rating ([1]; Rate 0.2500 kg/ha) | CYPSE herbicidal effect rating ([2]; Rate 0.0313 kg/ha) | CYPSE herbicidal effect rating ([2]; Rate 0.0625 kg/ha) | CYPSE herbicidal effect rating ([2]; Rate 0.1250 kg/ha) | CYPSE herbicidal effect rating ([2]; Rate 0.2500 kg/ha) | ECHORC herbicidal effect rating ([3]; Rate 0.0313 kg/ha) | ECHORC herbicidal effect rating ([3]; Rate 0.0625 kg/ha) | ECHORC herbicidal effect rating ([3]; Rate 0.1250 kg/ha) | ECHORC herbicidal effect rating ([3]; Rate 0.2500 kg/ha) | CYPIR herbicidal effect rating ([5]; Rate 0.0313 kg/ha) | CYPIR herbicidal effect rating ([5]; Rate 0.0625 kg/ha) | CYPIR herbicidal effect rating ([5]; Rate 0.1250 kg/ha) | CYPIR herbicidal effect rating ([5]; Rate 0.2500 kg/ha)
7.0: MOOVA herbicidal effect rating ([6]; Rate 0.1250 kg/ha) | MOOVA herbicidal effect rating ([6]; Rate 0.2500 kg/ha)
4.0: ORYSAT herbicidal effect rating ([4]; Rate 0.2500 kg/ha) | MOOVA herbicidal effect rating ([6]; Rate 0.0625 kg/ha)
3.0: ORYSAT herbicidal effect rating ([4]; Rate 0.1250 kg/ha)
